Laboratory results published in BindingDB's records for doi:10.1074/jbc.M114.558353 (Harvard School of Public Health, 2014).

Assays:
[1] = target: T1, Dihydroorotate dehydrogenase (quinone), mitochondrial (Plasmodium falciparum (isolate 3D7), UniProt Q08210); experiment: DHODH Biochemical Assay
T1 sequence (Q08210 whole entry): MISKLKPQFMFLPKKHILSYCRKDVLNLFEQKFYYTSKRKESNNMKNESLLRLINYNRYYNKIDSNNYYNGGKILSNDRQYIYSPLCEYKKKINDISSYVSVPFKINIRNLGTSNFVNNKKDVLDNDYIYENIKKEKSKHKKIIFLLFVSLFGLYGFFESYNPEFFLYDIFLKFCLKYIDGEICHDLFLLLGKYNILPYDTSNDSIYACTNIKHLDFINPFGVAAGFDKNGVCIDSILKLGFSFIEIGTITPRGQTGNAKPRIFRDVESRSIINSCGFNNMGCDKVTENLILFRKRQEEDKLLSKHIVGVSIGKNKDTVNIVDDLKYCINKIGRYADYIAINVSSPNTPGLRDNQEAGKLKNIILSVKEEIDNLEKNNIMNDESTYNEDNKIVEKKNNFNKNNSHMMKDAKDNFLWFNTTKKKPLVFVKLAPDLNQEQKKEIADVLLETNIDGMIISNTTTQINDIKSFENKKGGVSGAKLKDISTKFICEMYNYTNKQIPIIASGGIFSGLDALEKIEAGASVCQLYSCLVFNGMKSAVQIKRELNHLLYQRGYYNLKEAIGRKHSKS

[2] = target: Dihydroorotate dehydrogenase (quinone), mitochondrial (Homo sapiens, UniProt Q02127); experiment: DHODH Biochemical Assay
Sequence of Dihydroorotate dehydrogenase (quinone), mitochondrial (Homo sapiens, UniProt Q02127) (Q02127 whole entry): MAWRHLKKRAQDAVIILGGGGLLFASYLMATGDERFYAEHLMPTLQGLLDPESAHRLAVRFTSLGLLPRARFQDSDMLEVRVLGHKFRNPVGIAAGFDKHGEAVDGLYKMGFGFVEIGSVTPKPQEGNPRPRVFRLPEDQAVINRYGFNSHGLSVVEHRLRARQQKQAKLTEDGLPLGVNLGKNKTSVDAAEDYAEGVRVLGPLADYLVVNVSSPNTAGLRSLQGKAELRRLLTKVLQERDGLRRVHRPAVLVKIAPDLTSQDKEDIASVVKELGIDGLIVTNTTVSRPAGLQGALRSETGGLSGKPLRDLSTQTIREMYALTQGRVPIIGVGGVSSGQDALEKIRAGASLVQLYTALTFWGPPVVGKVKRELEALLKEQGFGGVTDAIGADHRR

IC50 [1] [µM]	IC50 [2] [µM]	Structure (SMILES)
13.5	> 30	CCOc1cccc(=O)c2c(C)n(Cc3ccc(Cl)cc3)c(C)c12 [IDI-6273]
1.7	> 30	CCSc1nnc(C2CCCN(CC(=O)Nc3cc(C(F)(F)F)ccc3Cl)C2)n1CC (stereo not drawn) [GSK3]
0.08	> 30	Cc1nc2c(C#N)cccc2n1-c1ccc(C(=O)NC2CC2)s1
3.5	3.8	Cc1nnc2c3ccccc3c(N3CCc4ccccc4C3)nn12 [IDI-6253]
